Data from publication PMC7144376, “Antiviral Effects of Novel 2-Benzoxyl-Phenylpyridine Derivatives” (Molecules, 2020).

What was measured:
[1] = Cytotoxicity on uninfected Hep-2 cells (MTT, 48 h); type: cell-based; details: human, read-out: CC50 (reduce cell viability by 50%), CVB3 host cells
Procedure: Human laryngeal carcinoma cells (Hep-2) and human cervical carcinoma cells (HeLa) were maintained in DMEM (Gibco) supplemented with 10% fetal bovine serum (FBS; Gibco), 100 U/mL penicillin and streptomycin, and 2 mM L-glutamine.
The antiviral activities of compounds against CVB3 and ADV7 were determined by measuring their inhibition of virus-induced CPEs in acutely infected Hep-2 and HeLa cells, respectively. Confluent cell monolayers in 96-well plates were infected with 100 TCID50 of CVB3 or ADV7 for 1.5 h at 37 °C, inocula were aspirated, and the cells then were incubated with various concentrations of compounds at 37 °C, 5% CO2, for 48 h. CPEs were observed by microscopy and the viability of cells was determined using MTT assays. The concentrations of test compounds required to achieve 50% protection from virus-induced cytopathogenicity (EC50 values) were determined. Adverse effects of tested compounds on host cells were also assessed using the MTT method after exposing uninfected cells to various concentrations of test compounds for 48 h at 37 °C. The CC50 values of compounds were calculated using SPSS software and selectivity indices were the ratio of CC50:EC50. Each experiment was performed in triplicate and at least three times, independently.

CVB3 [2] = assay: Viral adsorption/entry analysis; type: cell-based, Coxsackievirus B3; details: Hep-2 cells, CVB3 10^6 TCID50, 2 h adsorption; 120 μM W-9, 160 μM W-13, W-15, ribavirin
Procedure: Figure 3 Analysis of the modes of action of W9, W13, and W15 against CVB3. (a) Analysis of effective stage. The antiviral effects of test compounds against CVB3 were detected by measuring cell viability after 48 h of infection when cells were treated with W9, W13, or W15 before, simultaneously, or after inoculation with CVB3 (100 TCID50). (b) Analysis of the effects on CVB3 adsorption. Mock-, 120 μM W-9-, 160 μM W-13-, 160 μM W-15-, or 160 μM ribavirin-treated CVB3 (10^6 TCID50) was inoculated onto Hep-2 cells and adsorbed for 2 h. Infected cells were then harvested and subjected to virus titration, using the TCID50 method. (c) The effects of test compounds on CVB3 release from Hep-2 cells. Hep-2 cells infected with 100 TCID50 of CVB3 were incubated with test compounds for 12 h, then cells and culture supernatants (intra- and extracellular) analyzed for virus yield, separately or together. Mock, no infection; VC, virus control. Values represent the means ± SDs of three independent experiments. * p < 0.05; ** p < 0.01, compared with the virus control group.
To this end, Hep-2 cells were mock-treated or inoculated with CVB3 (10^6 TCID50) treated with 120 μM W-9, 160 μM W-13, 160 μM W-15, or 160 μM ribavirin, and adsorbed for 2 h. Infected cells were then harvested and subjected to virus titration, using the TCID50 method.
Cells were infected with CVB3 (10^6 TCID50) containing 120 μM W-9, 160 μM W-13, 160 μM W-15, or 160 μM ribavirin, after 2 h adsorption at 37 °C, inocula were discarded, and the cells were washed three times with phosphate buffered saline (PBS), harvested, following three freeze-thaw cycles, and subjected to virus titration. Cells infected with CVB3 in the absence of test compounds were used as untreated virus-infected controls.

CVB3 RNA = CVB3 RNA by quantitative reverse transcription-PCR; type: cell-based, Coxsackievirus B3; details: 160 μM, Hep-2 cells, 32 h pi, normalized to GAPDH
Procedure: (§1) To further investigate the effects of these compounds on CVB3 replication, we analyzed the efficacy of representative compound, W13, in inhibiting viral progeny yield, RNA synthesis, and protein translation. Infected cells treated with or without 160 μM W-13 were harvested after 4 h, 8 h, 16 h and 32 h, viral progeny yields were determined using the Reed–Muench method, and quantitative reverse transcription polymerase chain reaction analysis of harvested cells were conducted, to evaluate the relative amounts of viral RNA. […] Figure 5b illustrates the efficacy of W-13 in inhibiting viral RNA synthesis. Viral RNA became detectable in the virus control group during the first 4 h pi, followed by significant increases at subsequent time points.
Figure 5 Effect of W13 on CVB3 replication in Hep-2 cells. Hep-2 cells infected with 100 TCID50 CVB3 were incubated in the absence or presence of 160 µM W13 and harvested at the indicated times post-infection. (a) Progeny virus yields were determined. (b) Viral RNA levels were measured by analysis of total RNA. GAPDH was amplified and the resulting data was used for normalization. […] (c) CVB3 protein levels were determined by indirect immunofluorescence, using the mouse anti-coxsackie virus B3 monoclonal antibody, MAB948, and an alexa-fluor-488-conjugated affiniPure goat anti-mouse IgG (H + L), after incubation with W13 for 24 h. […]

CVB3 [3] = assay: Time course of CVB3 progeny yield in Hep-2 cells; type: cell-based, Coxsackievirus B3; details: 160 μM, 32 h pi
Procedure: as §1, with “Viral RNA became detectable in the virus control group during the first 4 h pi, followed by significant increases at subsequent time points.” left out
Figure 5 Effect of W13 on CVB3 replication in Hep-2 cells. […] (a) Progeny virus yields were determined. (b) Viral RNA levels were measured by analysis of total RNA. […] (c) CVB3 protein levels were determined by indirect immunofluorescence, using the mouse anti-coxsackie virus B3 monoclonal antibody, MAB948, and an alexa-fluor-488-conjugated affiniPure goat anti-mouse IgG (H + L), after incubation with W13 for 24 h. […]
CVB3 or ADV7 suspensions, serially diluted 10-fold with DMEM containing 2% FBS (DMEM maintenance medium, MM), were inoculated to Hep-2 or HeLa cells in 96-well plates. […] After 2 days, infected cells were monitored for CPEs and virus titers were calculated using the Reed–Muench method.

NC(=O)c1ncn([C@@H]2O[C@H](CO)[C@@H](O)[C@H]2O)n1 [Ribavirin, reference compound]
CC50 at 48 h [1]: 836 µM | virus titer during virus attachment (adsorption/entry) (CVB3 [2]): no significant decrease in virus titer

O=C(Oc1cc(Cl)ccc1-c1ccccn1)c1ccccc1 [W9]
CC50 at 48 h [1]: 148 ± 11.6 µM | virus titer during virus attachment (adsorption/entry) (CVB3 [2]): no significant decrease in virus titer

Cc1ccc(OC(=O)C(C)(C)C)c(-c2ccccn2)c1 [W13]
reduction of viral RNA copy numbers (CVB3 RNA): approximately 500 fold | CC50 at 48 h [1]: 424 ± 26.8 µM | reduction in viral replication (progeny virus titer) (CVB3 [3]): ~3.0 log | virus titer during virus attachment (adsorption/entry) (CVB3 [2]): no significant decrease in virus titer

CC(=O)Oc1ccc(-c2ccccn2)c(OC(=O)c2ccccc2)c1 [W15]
CC50 at 48 h [1]: 451 ± 32.4 µM | virus titer during virus attachment (adsorption/entry) (CVB3 [2]): no significant decrease in virus titer
